{"source": "patent US8637679B2", "about": "“Process for the isolation of organic compounds useful for the treatment of cancer” (Council of Scientific and Industrial Research, priority 2011, dated 2014)", "key": {"[1]": {"test_system": "U87MGEGFRvIII", "experiment": "MTT cell viability assay, U87MGEGFRvIII", "type": "cell-based", "settings": "Homo sapiens, 48 hrs treatment", "method": "(§1) Human cervical cancer cell lines (HeLa, ME-180 and SiHa), brain tumor cell lines (U87MG, U373MG, U87MG EGFRvIII, T98G, A172 and LN229), lymphoid leukemia (MOLT-3, MOLT-4, REH and CEMC-7), myloid leukemia (K562), pancreatic cancer (MIAPaCa-2, AsPC-1, Panc-1 and Panc 10.05), lung cancer (A549) and colon cancer (HCT116 and SW480) cell lines from American Type Culture Collection, Manassas, Va., USA were grown in IMDM or RPMI (cell specific) Medium supplemented with 10% fetal bovine serum and 1% antibiotic-antimycotic. Cells were cultured in 37° C. in an atmosphere of 5% CO2.\n(§2) Viability of cancer cell lines after treatment as at the indicated times was determined by MTT assay. Briefly, 10,000 cells were plated in triplicate in 96 well plates and incubated for 24 and 48 hours in complete media in presence of varying dose of mahanine (0-50 μM). 100 ug MTT was added in each well. Incubate the plate for 1-4 hours at 37° C. and humidified 5% CO2 atmosphere. Absorbance was recorded at 550 nm with 96 well plate readers."}, "[2]": {"test_system": "HCT116", "experiment": "MTT cell viability assay, HCT116", "type": "cell-based, human", "settings": "Homo sapiens, HCT-116; HCT116, 48 hrs", "method": "as §1, §2"}, "[3]": {"test_system": "Hsp90-Cdc37 complex", "experiment": "Co-immunoprecipitation of Hsp90-Cdc37 complex", "type": "cell-based, human", "method": "(§3) Different human cancer cells (1×10^6 cells) were incubated with complete medium alone or with different dose of Mahanine (10-20 μM) as indicated. Cells were detached using trypsin-EDTA solution. They were collected by centrifugation at 1500 g for 10 mins and lysed by sonication. Aliquots containing 60 μg total cellular protein were separated by 10% SDS-PAGE and transferred to nitrocellulose membrane (MILIPORE, Bedford, Mass., USA). Membrane was blocked with blocking buffer for 1 hour at room temperature and probed with desired primary antibody Hsp90, Hsp70, Hsp40, p23, HOP, Cdc37, B-Raf, Stat-3, Bcl-xl, Akt, PARP, β-actin (Cell signaling technology, USA) and caspase-3 (Santa Cruz, USA), caspase9, cytochrome c (cell signaling technology, USA) for overnight at 4° C. followed by HRP conjugated secondary antibody and detected by ECL. For the detection of association of the Hsp90-Cdc37, Hsp90-p23 and Hsp90-HOP, total cell lysate (400 μg) was treated with anti-Hsp-90 antibody (1:100 dilutions) and incubated overnight at 4° C. The chaperonic complex was resolved by SDS-PAGE (10%), transferred and probed separately with anti-Cdc37, anti-HOP, anti-p23 and anti-Hsp-90 antibodies. In the few immunoprecipitation experiments anti-Cdc37 used as precipitating antibody and Hsp90 was used as detection antibody. For the proteasomal inhibition assay cells were pretreated with 10 μM MG132 for 1 hr and then cells are exposed in 20 μM mahanine for 24 hrs. For proteasomal inhibition assay at 6 hrs incubation in MIAPaCa-2, cells were pre-incubated with 20 μM MG132 for 1 hr and then cells were exposed in 30 μM mahanine."}, "[4]": {"test_system": "Hsp90 client proteins (Akt)", "experiment": "Western blot of Hsp90 client proteins", "type": "cell-based, human", "settings": "cervical and pancreatic cancer cell lines, 24 hrs", "method": "as §3, with “For the proteasomal inhibition assay cells were pretreated with 10 μM MG132 for 1 hr and then cells are exposed in 20 μM mahanine for 24 hrs. For proteasomal inhibition assay at 6 hrs incubation in MIAPaCa-2, cells were pre-incubated with 20 μM MG132 for 1 hr and then cells were exposed in 30 μM mahanine.” left out"}}}
{"compound": "CC(C)=CCCC1(C)C=Cc2c(c(C)cc3c2[nH]c2cc(O)ccc23)O1", "note": "(stereo not drawn) [Mahanine, mahanine]", "values": [{"measurement": "IC50", "setting": "[1]", "value": "~14", "unit": "µM"}, {"measurement": "IC50", "setting": "[2]", "value": "13.5 ± 0.8", "unit": "µM"}, {"measurement": "dose needed to initiate dissociation of Hsp90-Cdc37", "setting": "[3]; HeLa, 24 hr", "value": 17.5, "unit": "µM"}, {"measurement": "dose adequate to begin Hsp90-Cdc37 dissociation", "setting": "[3]; MIAPaCa2, 24 hr", "value": 12.5, "unit": "µM"}, {"measurement": "dose showing significant decrease of association of Hsp90-Cdc37 complex", "setting": "[3]; U87MG, 24 hr", "value": 15, "unit": "µM"}, {"measurement": "dose enough to start significant downregulation of Akt level", "setting": "[4]", "value": 15, "unit": "µM"}]}
